In ChEMBL document CHEMBL1201862, “PubChem BioAssay data set” (2004):
Blank lines part the entries; values can stand above or below the compound they belong to. Activity calls are given as the source filed them.

Tests used:
[1] = biological target: DNA dC->dU-editing enzyme APOBEC-3A (Homo sapiens, UniProt P31941); assay: Dose Response confirmation of small molecule APOBEC3A DNA Deaminase Inhibitors via a fluorescence-based single-stranded DNA deaminase assay. [Related pubchem assays (depositor defined):AID493011, AID493024]; format: functional
[2] = biological target: DNA dC->dU-editing enzyme APOBEC-3G (Homo sapiens, UniProt Q9HC16); format: functional;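 also: Dose-response counterscreen measuring inhibition of APOBEC3G DNA deaminase activity, run while confirming APOBEC3A inhibitors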
Coagulation factor XII = biological target: T1, Coagulation factor XII (Homo sapiens, UniProt P00748); assay: FXIIa inhibitor potency, concentration-response, biochemical (AID 716); format: functional
T1 sequence (P00748 whole entry): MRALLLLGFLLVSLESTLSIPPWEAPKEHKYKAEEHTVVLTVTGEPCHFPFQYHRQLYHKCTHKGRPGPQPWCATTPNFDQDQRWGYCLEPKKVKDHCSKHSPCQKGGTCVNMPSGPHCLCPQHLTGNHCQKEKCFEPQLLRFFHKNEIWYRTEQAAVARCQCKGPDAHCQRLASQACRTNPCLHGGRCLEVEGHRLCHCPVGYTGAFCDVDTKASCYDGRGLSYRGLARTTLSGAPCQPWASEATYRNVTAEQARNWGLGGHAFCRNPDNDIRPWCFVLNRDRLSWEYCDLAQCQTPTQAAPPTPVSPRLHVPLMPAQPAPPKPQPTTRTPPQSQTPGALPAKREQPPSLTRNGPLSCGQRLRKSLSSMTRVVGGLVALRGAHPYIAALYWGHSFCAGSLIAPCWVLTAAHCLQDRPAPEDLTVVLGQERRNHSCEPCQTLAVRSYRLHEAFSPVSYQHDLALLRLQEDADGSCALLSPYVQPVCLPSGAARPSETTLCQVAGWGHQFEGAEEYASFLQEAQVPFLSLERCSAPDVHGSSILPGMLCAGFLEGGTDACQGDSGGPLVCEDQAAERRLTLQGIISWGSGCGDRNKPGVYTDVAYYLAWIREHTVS

[3] = P. falciparum late gametocyte killing, dose response, luminescence (AID 1117278); format: functional, cell-based;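 also: gametocytes exposed to compound for 24 hours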
[4] = Jurkat T cell cytotoxicity, dose response, cytotoxicity control for P. falciparum gametocyte viability project, luminescence (AID 1117277); format: functional, cell-based;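 also: potency reflects loss of cellular ATP meaning fewer viable cells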
Caspase-6 = biological target: T2, Caspase-6 (Homo sapiens, UniProt P55212); assay: human caspase-6 inhibitors, dose response, biochemical, VEID-R110 fluorescence, cherry-pick (AID 720632)
T2 sequence (P55212 whole entry): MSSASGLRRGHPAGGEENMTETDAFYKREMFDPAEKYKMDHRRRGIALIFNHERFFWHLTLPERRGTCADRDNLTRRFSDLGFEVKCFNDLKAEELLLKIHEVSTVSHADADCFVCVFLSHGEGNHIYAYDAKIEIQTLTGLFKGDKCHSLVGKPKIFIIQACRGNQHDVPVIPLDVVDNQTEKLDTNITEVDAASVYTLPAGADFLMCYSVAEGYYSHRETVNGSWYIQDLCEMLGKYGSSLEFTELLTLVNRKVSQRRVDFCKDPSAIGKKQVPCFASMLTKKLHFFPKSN

Paired box protein Pax-8 = Paired box protein Pax-8 (Homo sapiens, UniProt Q06710); assay: inhibitors of PAX8-driven TPO luciferase reporter, dose response, RMG-I cells, cherry-pick (AID 687027); format: functional, cell-based;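 also: luciferase reporter driven by Pax8 target thyroperoxidase promoter measured by SteadyGlo luminescence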
[5] = NIH:OVCAR-3 ovarian cancer cell cytotoxicity, dose response, PAX8 inhibitor project, plate reader, dry powder samples (AID 743044); format: functional, cell-based
[6] = cytotoxicity in OVCAR8 ovarian cancer cells, dose response, PAX8 project, cell-based, plate reader, dry powder samples (AID 743197); format: functional; details: OVCAR-8
Leucine aminopeptidase = biological target: T3, Leucine aminopeptidase (Plasmodium falciparum 3D7, UniProt Q8IL11); assay: P. falciparum M17LAP inhibitors, primary screen, biochemical, fluorogenic H-Leu-NHMec substrate, 1536-well (AID 1619); format: functional
T3 sequence (Q8IL11 whole entry): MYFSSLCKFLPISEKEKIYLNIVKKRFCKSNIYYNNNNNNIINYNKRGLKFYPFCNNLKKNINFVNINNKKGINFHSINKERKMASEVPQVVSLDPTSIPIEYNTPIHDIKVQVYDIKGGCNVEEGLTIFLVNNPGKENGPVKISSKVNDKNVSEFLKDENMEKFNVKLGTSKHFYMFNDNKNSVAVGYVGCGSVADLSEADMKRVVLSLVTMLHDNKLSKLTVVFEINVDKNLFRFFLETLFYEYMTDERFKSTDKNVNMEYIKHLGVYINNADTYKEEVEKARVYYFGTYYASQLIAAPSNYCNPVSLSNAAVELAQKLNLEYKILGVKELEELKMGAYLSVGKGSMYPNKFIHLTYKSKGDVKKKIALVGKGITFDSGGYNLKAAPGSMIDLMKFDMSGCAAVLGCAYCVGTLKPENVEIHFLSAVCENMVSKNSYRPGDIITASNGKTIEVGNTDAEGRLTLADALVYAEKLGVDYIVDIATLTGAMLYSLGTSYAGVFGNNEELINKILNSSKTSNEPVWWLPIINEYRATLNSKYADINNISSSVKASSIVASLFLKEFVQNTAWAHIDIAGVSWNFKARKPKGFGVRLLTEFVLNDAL

[7] = biological target: T4, Microphthalmia-associated transcription factor (Homo sapiens, UniProt O75030); assay: TRPM1 promoter luciferase signal decrease, dose response, MITF inhibitor project, cell-based, SK-MEL-5, cherry-picked, set 3 (AID 493073); format: functional
T4 sequence (O75030 whole entry): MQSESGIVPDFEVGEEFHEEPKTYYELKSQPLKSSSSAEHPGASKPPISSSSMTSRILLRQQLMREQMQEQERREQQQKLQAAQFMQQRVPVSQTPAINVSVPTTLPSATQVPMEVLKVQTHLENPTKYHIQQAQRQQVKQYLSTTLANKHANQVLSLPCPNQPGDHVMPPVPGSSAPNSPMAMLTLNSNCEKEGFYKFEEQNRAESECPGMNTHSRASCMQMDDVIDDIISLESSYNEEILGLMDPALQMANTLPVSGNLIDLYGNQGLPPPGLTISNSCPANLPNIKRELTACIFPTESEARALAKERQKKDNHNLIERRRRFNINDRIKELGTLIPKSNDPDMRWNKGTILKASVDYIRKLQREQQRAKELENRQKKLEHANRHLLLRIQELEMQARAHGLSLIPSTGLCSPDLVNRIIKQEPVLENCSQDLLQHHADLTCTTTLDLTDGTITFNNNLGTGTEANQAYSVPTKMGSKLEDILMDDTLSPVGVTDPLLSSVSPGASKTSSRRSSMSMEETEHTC

Fatty acid synthase [8] = biological target: T5, Fatty acid synthase (Homo sapiens, UniProt P49327); assay: FAS thioesterase domain inhibitors, dose response, biochemical, endpoint fluorescence intensity, uHTS hits (AID 624327); format: functional;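 also: fluorescence from hydrolysis of an O-methyl fluorescein acyl ester substrate by the enzyme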
Fatty acid synthase [9] = biological target: T5, Fatty acid synthase; assay: FAS thioesterase domain inhibitors, dose response, biochemical, kinetic fluorescence intensity (AID 624326); format: functional;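 also: rate of fluorescence rise from hydrolysis of a fluorogenic O-methyl fluorescein ester substrate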
[10] = biological target: T6, COUP transcription factor 2 (Homo sapiens, UniProt P24468); assay: Luminescence-based cell-based high throughput dose response assay to identify inhibitors of COUP-TFII (NR2F2).; format: functional;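 also: HEK293 cells transiently cotransfected with COUP-TFII expression vector and reporter; luciferase reporter luminescence driven by COUP-TFII from the pX2-168 reporter plasmid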
T6 sequence (P24468 whole entry): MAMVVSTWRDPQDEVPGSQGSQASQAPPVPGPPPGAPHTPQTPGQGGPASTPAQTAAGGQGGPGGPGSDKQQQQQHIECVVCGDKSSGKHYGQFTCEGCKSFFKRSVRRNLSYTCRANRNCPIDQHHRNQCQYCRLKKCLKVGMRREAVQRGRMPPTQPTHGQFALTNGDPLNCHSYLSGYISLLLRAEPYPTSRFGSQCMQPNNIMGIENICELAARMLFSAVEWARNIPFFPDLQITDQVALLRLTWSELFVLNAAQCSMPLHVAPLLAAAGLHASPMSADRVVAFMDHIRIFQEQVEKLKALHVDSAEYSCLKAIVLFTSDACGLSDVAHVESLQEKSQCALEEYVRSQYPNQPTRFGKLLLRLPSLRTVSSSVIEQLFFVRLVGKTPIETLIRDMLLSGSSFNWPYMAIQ

[11] = biological target: Melanin-concentrating hormone receptor 1 (Homo sapiens, UniProt Q99705); assay: Fluorescence-based counterscreen for antagonists of the G-protein coupled receptor 7 (GPR7): cell-based high throughput dose response assay to identify antagonists of the melanin-concentrating hormone receptor 1 (MCHR1).; format: functional
[12] = P. falciparum 3D7-ScDHODH growth inhibitors, dose response, SYBR Green, dry powder samples (AID 1159570); format: functional, cell-based;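 also: parasite growth measured after 72 hours of compound exposure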
[13] = P. falciparum Dd2 growth inhibitors, dose response, SYBR Green, cherry-picked samples (AID 1159567); format: functional, cell-based
[14] = P. falciparum Dd2 growth inhibitors, dose response, SYBR Green, dry powder samples (AID 1159566); format: functional, cell-based;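 also: potency for growth inhibition with lower SYBR green DNA signal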
[15] = P. falciparum ATP4 D1247Y mutant growth inhibitors, dose response, NITD609-resistant line, SYBR Green, dry powder (AID 1159571); format: functional, cell-based;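 also: parasites synchronized at ring stage by sorbitol before testing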

Chain of DNA dC->dU-editing enzyme APOBEC-3G (Q9HC16 whole entry): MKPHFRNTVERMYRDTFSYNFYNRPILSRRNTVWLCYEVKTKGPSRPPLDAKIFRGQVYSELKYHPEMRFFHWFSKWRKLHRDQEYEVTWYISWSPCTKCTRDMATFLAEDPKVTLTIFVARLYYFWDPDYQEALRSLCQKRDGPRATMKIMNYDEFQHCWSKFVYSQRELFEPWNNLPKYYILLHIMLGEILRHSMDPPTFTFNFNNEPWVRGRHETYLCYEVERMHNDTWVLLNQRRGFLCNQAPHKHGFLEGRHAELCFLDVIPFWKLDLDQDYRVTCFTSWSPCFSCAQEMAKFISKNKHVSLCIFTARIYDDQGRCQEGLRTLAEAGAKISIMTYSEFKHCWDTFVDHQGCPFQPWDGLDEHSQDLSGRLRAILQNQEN
Chain of DNA dC->dU-editing enzyme APOBEC-3A (P31941 whole entry): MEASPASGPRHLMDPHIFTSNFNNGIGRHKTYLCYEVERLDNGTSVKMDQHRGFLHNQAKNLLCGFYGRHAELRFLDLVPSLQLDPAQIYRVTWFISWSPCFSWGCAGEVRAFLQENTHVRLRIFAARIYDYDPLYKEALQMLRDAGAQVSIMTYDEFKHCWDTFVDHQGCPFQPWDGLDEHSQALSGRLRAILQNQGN
T5 sequence (P49327 whole entry, the tested form may be a part): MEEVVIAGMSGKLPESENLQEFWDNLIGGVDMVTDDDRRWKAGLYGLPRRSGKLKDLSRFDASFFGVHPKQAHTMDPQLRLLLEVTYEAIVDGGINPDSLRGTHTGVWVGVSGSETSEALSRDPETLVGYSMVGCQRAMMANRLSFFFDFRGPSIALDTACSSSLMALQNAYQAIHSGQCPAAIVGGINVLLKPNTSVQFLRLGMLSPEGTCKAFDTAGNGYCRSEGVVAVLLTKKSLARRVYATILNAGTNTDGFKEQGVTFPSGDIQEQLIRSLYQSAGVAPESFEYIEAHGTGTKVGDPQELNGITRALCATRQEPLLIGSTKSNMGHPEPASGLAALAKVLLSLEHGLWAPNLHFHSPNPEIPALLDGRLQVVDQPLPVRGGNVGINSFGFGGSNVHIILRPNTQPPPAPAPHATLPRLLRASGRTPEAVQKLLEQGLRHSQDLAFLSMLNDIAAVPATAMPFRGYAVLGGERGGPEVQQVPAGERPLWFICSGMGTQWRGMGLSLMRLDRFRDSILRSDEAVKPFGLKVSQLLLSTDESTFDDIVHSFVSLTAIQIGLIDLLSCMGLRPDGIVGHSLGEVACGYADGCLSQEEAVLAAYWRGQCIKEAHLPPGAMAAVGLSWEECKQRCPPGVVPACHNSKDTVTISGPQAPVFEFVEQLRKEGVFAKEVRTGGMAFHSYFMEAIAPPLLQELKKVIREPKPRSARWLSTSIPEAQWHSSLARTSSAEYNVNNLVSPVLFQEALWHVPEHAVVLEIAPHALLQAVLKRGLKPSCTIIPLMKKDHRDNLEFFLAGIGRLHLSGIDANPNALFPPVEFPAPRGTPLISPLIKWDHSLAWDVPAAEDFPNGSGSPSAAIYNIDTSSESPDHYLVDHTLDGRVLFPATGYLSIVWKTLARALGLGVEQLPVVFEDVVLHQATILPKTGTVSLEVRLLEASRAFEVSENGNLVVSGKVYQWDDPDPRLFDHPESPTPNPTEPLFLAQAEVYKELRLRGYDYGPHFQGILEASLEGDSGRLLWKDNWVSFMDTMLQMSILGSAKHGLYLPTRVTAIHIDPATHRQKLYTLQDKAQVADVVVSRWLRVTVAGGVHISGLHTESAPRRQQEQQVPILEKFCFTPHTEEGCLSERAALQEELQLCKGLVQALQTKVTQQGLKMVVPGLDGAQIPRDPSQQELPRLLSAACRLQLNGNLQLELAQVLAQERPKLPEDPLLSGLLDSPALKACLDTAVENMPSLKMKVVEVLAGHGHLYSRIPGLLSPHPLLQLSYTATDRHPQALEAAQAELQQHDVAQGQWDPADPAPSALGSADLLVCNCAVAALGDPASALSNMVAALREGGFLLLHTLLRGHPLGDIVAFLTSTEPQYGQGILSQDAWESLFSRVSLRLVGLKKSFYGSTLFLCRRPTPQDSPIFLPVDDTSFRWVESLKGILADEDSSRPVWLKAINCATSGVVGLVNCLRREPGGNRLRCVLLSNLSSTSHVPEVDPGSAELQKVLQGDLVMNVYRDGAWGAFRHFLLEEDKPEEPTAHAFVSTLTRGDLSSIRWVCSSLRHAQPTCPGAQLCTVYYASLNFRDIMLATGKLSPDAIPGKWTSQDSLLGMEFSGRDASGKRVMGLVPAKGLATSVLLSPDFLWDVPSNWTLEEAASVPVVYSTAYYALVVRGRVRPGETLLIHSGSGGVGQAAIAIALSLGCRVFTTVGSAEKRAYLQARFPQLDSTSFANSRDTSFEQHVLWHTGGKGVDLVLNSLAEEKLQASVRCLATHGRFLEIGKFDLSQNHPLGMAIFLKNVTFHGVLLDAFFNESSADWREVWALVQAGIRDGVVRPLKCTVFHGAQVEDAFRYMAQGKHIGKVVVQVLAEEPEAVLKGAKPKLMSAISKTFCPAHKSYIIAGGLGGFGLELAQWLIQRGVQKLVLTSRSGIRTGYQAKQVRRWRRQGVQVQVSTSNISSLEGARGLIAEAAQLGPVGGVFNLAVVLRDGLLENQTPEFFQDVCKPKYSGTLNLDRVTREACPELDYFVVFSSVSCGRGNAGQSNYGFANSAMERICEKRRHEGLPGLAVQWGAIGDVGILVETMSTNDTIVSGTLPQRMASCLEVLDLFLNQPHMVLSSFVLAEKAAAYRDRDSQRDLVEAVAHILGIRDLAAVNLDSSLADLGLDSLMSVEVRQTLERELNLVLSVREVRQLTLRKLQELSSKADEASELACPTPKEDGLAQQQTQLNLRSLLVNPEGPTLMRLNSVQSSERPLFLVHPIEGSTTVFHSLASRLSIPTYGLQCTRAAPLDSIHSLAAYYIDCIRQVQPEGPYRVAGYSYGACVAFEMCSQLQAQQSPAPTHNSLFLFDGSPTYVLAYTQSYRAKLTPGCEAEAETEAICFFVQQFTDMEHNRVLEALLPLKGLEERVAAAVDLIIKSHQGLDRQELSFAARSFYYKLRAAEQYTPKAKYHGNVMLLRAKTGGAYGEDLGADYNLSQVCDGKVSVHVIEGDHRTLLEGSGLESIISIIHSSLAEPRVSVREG
Chain of Paired box protein Pax-8 (Q06710 whole entry): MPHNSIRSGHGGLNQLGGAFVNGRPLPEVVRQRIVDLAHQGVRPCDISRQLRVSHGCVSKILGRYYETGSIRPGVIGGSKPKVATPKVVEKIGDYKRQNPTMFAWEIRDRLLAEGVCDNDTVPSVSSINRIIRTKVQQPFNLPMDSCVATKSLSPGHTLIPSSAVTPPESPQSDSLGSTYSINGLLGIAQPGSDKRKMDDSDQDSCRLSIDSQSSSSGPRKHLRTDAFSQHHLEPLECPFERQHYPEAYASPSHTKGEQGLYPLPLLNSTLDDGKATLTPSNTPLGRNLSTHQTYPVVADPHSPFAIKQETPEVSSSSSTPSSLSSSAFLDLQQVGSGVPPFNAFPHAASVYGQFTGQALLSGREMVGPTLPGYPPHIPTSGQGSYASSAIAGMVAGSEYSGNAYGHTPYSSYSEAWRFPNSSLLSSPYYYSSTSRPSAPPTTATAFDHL
Chain of Melanin-concentrating hormone receptor 1 (Q99705 whole entry): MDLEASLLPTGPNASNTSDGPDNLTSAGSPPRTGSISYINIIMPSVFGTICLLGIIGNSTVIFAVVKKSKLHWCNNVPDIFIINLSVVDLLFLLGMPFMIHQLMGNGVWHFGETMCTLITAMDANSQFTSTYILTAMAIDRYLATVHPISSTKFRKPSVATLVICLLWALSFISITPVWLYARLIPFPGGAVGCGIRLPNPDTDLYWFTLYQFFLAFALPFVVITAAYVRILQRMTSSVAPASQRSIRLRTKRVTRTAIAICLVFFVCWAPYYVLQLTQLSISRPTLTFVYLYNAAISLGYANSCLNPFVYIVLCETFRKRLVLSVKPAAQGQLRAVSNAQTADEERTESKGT

SMILES: CCN1CCN(c2ccc(S(=O)(=O)N3CCOCC3)cc2NC(=O)C(C)Oc2ccc(Cl)cc2)CC1 (stereo not drawn)
- IC50 [1]: 9.56 µM (active)
- IC50 [2]: 14.7 µM (active)

- IC50 (Coagulation factor XII): > 50 µM (inactive)
SMILES: O=C(c1ccco1)N1CCN(S(=O)(=O)c2ccc(Oc3ccccc3)cc2)CC1

SMILES: CC(C)CNC(=O)CCCc1ccccc1
- IC50 [3]: > 109 µM (inactive)
- IC50 [4]: > 83.4 µM (inactive)

- AC50 (Caspase-6): 34.5 µM (active)
SMILES: CCOc1cc(N2CCOCC2)c(OCC)cc1NS(=O)(=O)c1cc(NC(C)=O)ccc1OC

- AC50 (Caspase-6): 30.4 µM (active)
SMILES: CC(=O)N1CCc2cc(Br)cc(S(=O)(=O)N3CCC(C(=O)O)CC3)c21

SMILES: Nn1c(SCC(=O)Nc2ccc3c(c2)OCCO3)nnc(CCC(=O)O)c1=O
- IC50 [1]: 9.11 µM (active)
- IC50 [2]: 8.47 µM (active)

SMILES: CC(=O)C[C@@H](O)CC(=O)[C@H]1OC(=O)CC/C=C\Cc2ccccc21
- IC50 [3]: > 109 µM (inactive)
- IC50 [4]: > 83.3 µM (inactive)

SMILES: CN1CCCN(S(=O)(=O)c2ccccc2)CC1
- IC50 [1]: 4.85 µM (active)
- IC50 [2]: 5.93 µM (active)

SMILES: Cc1ccc(S(=O)(=O)Nc2ccc3c(c2)C(=O)N([C@H](C)CO)C[C@@H](C)[C@H](CN(C)C(=O)Nc2cccc4ccccc24)OCCCC[C@@H](C)O3)cc1
- AC50 (Paired box protein Pax-8): 5.78 µM (active)
- AC50 [5]: 42.1 µM (active)
- AC50 [6]: > 70 µM (inactive)

- IC50 (Leucine aminopeptidase): 13.3 µM (active)
- AC50 [7]: 6.03 µM (active)
- IC50 (Fatty acid synthase [8]): 7.49 µM (active)
- IC50 (Fatty acid synthase [9]): 8.76 µM (active)
- IC50 [10]: > 9.49 µM (active)
SMILES: CC(C)(C)c1ccc(/C=N/Nc2ccc(C(=O)O)cc2)cc1

SMILES: CCOC(=O)/C(CCCN(CC)CC)=N\O
- IC50 [1]: 1.35 µM (active)
- IC50 [2]: 1.26 µM (active)

- IC50 [11]: > 43.8 µM (not active)
SMILES: Cc1cc([N+](=O)[O-])cc(C)c1OCC(=O)N/N=C/c1ccc(OC(=O)c2ccccc2)cc1

SMILES: COc1ccc(C#Cc2ccc3c(c2)O[C@@H](CN(C)S(=O)(=O)c2ccccc2F)[C@@H](C)CN([C@@H](C)CO)S3(=O)=O)cc1
- AC50 [12]: 1.71 µM (active)
- AC50 [13]: 2.65 µM (active)
- AC50 [14]: 1.42 µM (active)
- AC50 [15]: 1.93 µM (active)
